Laboratory results: ChEMBL document CHEMBL5126662, “Expanding the Ajudazol Cytotoxin Scaffold: Insights from Genome Mining, Biosynthetic Investigations, and Novel Derivatives” (J Nat Prod, 2022)
Activity calls are given as the source filed them.

Experiments:
Type in all cases: functional, cell-based
Details in all cases: time 5.0 day
[1] = test system: KB 3-1; assay: Antiproliferative activity against human KB3.1 cells assessed as reduction in cell viability after 5 days by MTT assay
[2] = test system: HepG2; assay: Antiproliferative activity against human HepG2 cells assessed as reduction in cell viability after 5 days by MTT assay
[3] = test system: HCT-116; assay: Antiproliferative activity against human HCT-116 cells assessed as reduction in cell viability after 5 days by MTT assay

Measured: Activity

C=C(C/C=C/C=C/CC/C=C/CN(C)C(=O)C=C(C)C)c1nc(C[C@@H](C)[C@H]2OC(=O)c3c(ccc(C)c3O)[C@@H]2O)co1
active: [1] | [2] | [3]

C=C(C/C=C/C=C/CC/C=C/CN(C)C(=O)/C=C(\C)CO)c1nc(C[C@@H](C)[C@H]2OC(=O)c3c(ccc(C)c3O)[C@@H]2O)co1
active: [1] | [2] | [3]

CC(C)=CC(=O)N(C)C/C=C/CC/C=C/C=C/CC(O)(CO)c1nc(C[C@@H](C)[C@H]2OC(=O)c3c(ccc(C)c3O)[C@@H]2O)co1 (some centres undefined)
active: [1] | [2] | [3]

CC(C)=CC(=O)N(C)C/C=C/CC/C=C/C=C/CC(O)(CO[C@@H]1O[C@H](CO)[C@@H](O)[C@H](O)[C@H]1O)c1nc(C[C@@H](C)[C@H]2OC(=O)c3c(ccc(C)c3O)[C@@H]2O)co1 (some centres undefined)
active: [1] | [2] | [3]

C=C(C/C=C/C=C/CC/C=C/CN(C)C(=O)C=C(C)C)c1nc(C[C@@H](C)[C@H]2OC(=O)c3c(ccc(C)c3O)[C@@H]2O[C@@H]2O[C@H](CO)[C@@H](O)[C@H](O)[C@H]2O)co1
active: [1] | [2] | [3]

CC(C)=CC(=O)N(C)C/C=C/CC/C=C/C=C/CC(C)(O)c1nc(C[C@@H](C)[C@H]2OC(=O)c3c(ccc(C)c3O)[C@@H]2O)co1 (some centres undefined)
active: [1] | [2] | [3]

CC(C)=CC(=O)N(C)C/C=C/CC/C=C/C=C/C[C@@H](C)c1nc(C[C@@H](C)[C@H]2OC(=O)c3c(ccc(C)c3O)[C@@H]2O)co1
active: [1] | [2] | [3]

CC(C)=CC(=O)N(C)C/C=C/CC/C=C/C=C/CC(O)(CO[C@@H]1O[C@H](CO)[C@@H](O)[C@@H]1O)c1nc(C[C@@H](C)[C@H]2OC(=O)c3c(ccc(C)c3O)[C@@H]2O)co1 (some centres undefined)
active: [1] | [2] | [3]
